Results reported in patent US20100266503A1, “Breast Cancer Methods, Medicaments and Agents” (priority 2007, published 2010).
Non-standard residues stand in square brackets, D forms with d. Residues, ends and D or L forms follow the SMILES beside them. *: point of attachment. Nle = CCCC[C@H](N)C(=O)O; Cbz = O=C(OCc1ccccc1)*

Assays:
Assay type in all cases: cell-based
[1] = system: Hes1 transcriptional activity (Notch target gene); experiment: CSL (Hes-1) Luciferase reporter assay upon GSI1 treatment; conditions: 750 nM, 2 microM, 5 microM; 24 h
Description: For the Luciferase based reporter assay, 5×10^4 cells were plated in 48 well plates and allowed to adhere over night. The following day, cells were transfected with 200 ng of the 23A plasmid (Hes-1 reporter). 24 h after transfection, transfection media was evacuated and replaced with treatment media (750 nM, 2 microM, 5 microM of the GSI1 and a vehicle treated control). Cells were incubated for 24 h at 37 C. At the 24 h time point the Dual Glow (Promega) Luciferase Kit was implemented according to manufacturer's protocol).

[2] = system: L226U19 and L226TS4 cells; experiment: SRB proliferation of GSI1 on normal L226 cell lines; conditions: tested at 10-80 μM; the two L226 cell lines
Description: (§1) Graphs illustrating the effects of GSI1, at different concentrations, on proliferation in four normal cell lines: (A) MCF-10A cells, (B) MCF-10A, (C) L226U19 cells and (D) L226TS4 cells.
(§2) The effect of GSI1 on proliferation in normal cell lines was investigated as, illustrated in FIG. 8. […] Therefore we repeated in all 3 normal lines (MCF-10A, L226U19 and L226TS4) at much higher concentrations (10 μM, 20 μM, 40 μM, 60 μM and 80 μM). 10 μM GSI1 was required to kill the MCF-10A cells and over 40 μM GSI1 was required to kill the two L226 cell lines. MCF-10A cells were cultured in DMEM (Invitrogen 11995-040), […] Insulin (Sigma, 11882), 20 ng/ml hEGF (Trevigen, 3443-050-01), 100 ng/ml Cholera Toxin (Sigma, C8052), 500 ng/ml Hydrocortisone (Sigma, H0888), 5% Horse Serum +100U/m1 penicillin, 0.1 mg/ml streptomycin, 2 mM L-glutamine at 37° C. in 5% CO2. L226U19 and TS4 cells were cultured in DME: F12 plus 10% FCS, 5 μg/ml insulin, 1 μg/ml Hydrocortisone, 10 ng/ml hEGF, 10 ng/ml Cholera toxin 100 U/ml penicillin, 0.1 mg/ml streptomycin, 2 mM L-glutamine at 37° C. in 5% CO2.

[3] = system: CD44 in ZR75-1 and MCF10A cells; experiment: CD44 immunofluorescence staining after GSI1; conditions: GSI1 750 nM
Source text: Stained sections of the breast cancer cell line ZR75-1 (A-D) and the normal cell line (E-H) showing effect of GSI1 on CD44 concentration. Upper sections (A, B, E and F) show cells treated with GSI1. Lower sections (C, D, G and H) show untreated cells. Sections were stained with an anti CD44 primary antibody and a fluorescently labeled secondary antibody to detect CD44. Nuclei were counterstained with DAPI, as shown in panels A, C, E and G.
In order to understand the mechanism of how GS inhibition by GSI1 leads to cell death, we investigated the effect of GS inhibition on CD44 expression which is a substrate for GS and is a cell adhesion molecule. […] The effect of GSI1 on CD44 expression was investigated in one cancer, ZR75-1, and one normal, MCF10A, cell line±GSI1 (at 750 nM i.e. inhibitory dose) (FIG. 9). We used an anti CD44 primary antibody and a fluorescently labelled secondary antibody to detect the CD44. Specifically, the CD44 antibody was a FITC conjugated antibody (BD Biosciences) that was used at a 1:40 dilution. The antibody was incubated for 60 mins at room temperature after fixing in formalin. Nuclei were counterstained with DAPI. […] Thus the inhibitor was not causing the cells to become detached from the plates and die.

MCF-10A cells = experiment: SRB proliferation of GSI1 on normal cell line MCF-10A
Description: as §1, §2

[4] = system: MDA-MB-231, T47-D and MCF-7 breast cancer cell lines; experiment: Proliferation of breast cancer cell lines treated with GSIs for 72 h, Coulter Counter cell count; conditions: tested 10 nM to 50 μM
Description: Graphs illustrating the effects of three GSIs: (A) DAPT (N-[N-(3,5-Difluorophenacetyl-L-alanyl)]-S-phenylglycine t-butyl ester), (B) Compound E ((2S)-2-{[(3,5-Difluorophenyl)acetyl]amino}-N-[(3S)-1-methyl-2-oxo-5-phenyl-2,3-dihydro-1H-1,4-benzodiazepin-3-yl]propanamide) and (C) GSI1 (Z-Leu-Leu-Nle-CHO) on proliferation in three breast cancer cell lines (MDA-MB-231, T47-D and MCF-7 cells). Cells were treated with the GSIs at different concentrations for 72 hours and the number of cells counted.
FIG. 6 illustrates the effect of three GSIs, DAPT, Compound E and GSI1 on proliferation in three breast cancer cell lines, MDA-MB-231 [Oestrogen receptor (ER) negative, epidermal growth factor receptor (EGFR) and HER-2 strongly positive, increasingly metastatic T47-D-MCF-MDA], T47-D [weakly ER positive, progesterone receptor positive, strongly EGFR (HER-1, cERB-B1) positive and HER-2(c-ERB-B2) positive] and MCF-7 [highly ER positive and very weakly EGFR and HER-2 positive if at all]. The breast cancer cell lines were treated with the 3 GSIs for 72 h. 20,000 cells were seeded into 24 well plates in triplicate and allowed to adhere overnight. […] After 72 hours the media was removed and the adherent cells removed and counted on a Coulter Counter. […]

With `CCCC[C@@H](C=O)NC(=O)[C@H](CC(C)C)NC(=O)[C@H](CC(C)C)NC(=O)OCc1ccccc1` [GSI1, Z-Leu-Leu-Nle-CHO] (Cbz-Leu-Leu-[Nle]-aldehyde) the “Hes1 reporter (Luciferase) activity” value [1] was “dose dependant decrease of the reporter activity”, the “concentration required to kill the cells” value [2] was “over 40 μM” and the CD44 expression [3] was “up-regulation of CD44”. The effect on proliferation (MCF-10A cells; GSI1 100 nM to 10 μM) was “no effect on proliferation”, the “concentration required to kill the cells” value (MCF-10A cells; repeat at 10-80 μM) was 10 µM and the “concentration that virtually eliminates all the cells” value [4] was 1 µM.
